The structures appear in SMILES notation.

The nature of data set [1]: Toxicity in iv dosed mouse. It is filed as organism-based. As to conditions: in vivo.
In data set [2] the target is Neuronal acetylcholine receptor subunit alpha-7 (Rattus norvegicus, UniProt Q05941). Nature of the data set: Displacement of [125I]alpha-bungarotoxin from alpha7 nAChR in rat brain membrane. It is filed as cell membranes.
Data set [3] concerns the target Neuronal acetylcholine receptor; alpha4/beta2 (Rattus norvegicus, UniProt P09483+P12390). Put plainly: Displacement of [3H]cytisine from alpha4beta2 nAChR in rat brain membrane. The format is cell membranes. (In general: Displacement assays read how much labelled ligand stays bound in the presence of the test substance.)

Sequence of Neuronal acetylcholine receptor; alpha4/beta2 (P09483 whole entry): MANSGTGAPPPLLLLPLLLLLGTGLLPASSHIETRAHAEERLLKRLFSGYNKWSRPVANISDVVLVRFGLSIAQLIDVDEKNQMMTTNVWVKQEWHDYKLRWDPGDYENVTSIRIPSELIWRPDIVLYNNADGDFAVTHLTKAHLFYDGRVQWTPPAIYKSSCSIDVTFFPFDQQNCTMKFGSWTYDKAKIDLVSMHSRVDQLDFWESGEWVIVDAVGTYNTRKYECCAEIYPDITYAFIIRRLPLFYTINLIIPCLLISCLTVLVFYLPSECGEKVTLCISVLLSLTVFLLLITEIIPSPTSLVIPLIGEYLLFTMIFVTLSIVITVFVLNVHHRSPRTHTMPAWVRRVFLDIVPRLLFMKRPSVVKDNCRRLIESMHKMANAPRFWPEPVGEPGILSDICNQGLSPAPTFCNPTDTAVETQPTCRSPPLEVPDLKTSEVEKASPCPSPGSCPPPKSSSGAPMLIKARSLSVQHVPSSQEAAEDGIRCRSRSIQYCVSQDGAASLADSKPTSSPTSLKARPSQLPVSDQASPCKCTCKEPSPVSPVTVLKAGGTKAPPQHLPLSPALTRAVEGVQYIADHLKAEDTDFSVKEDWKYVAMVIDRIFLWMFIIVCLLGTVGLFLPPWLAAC
Sequence of Neuronal acetylcholine receptor; alpha4/beta2 (P12390 whole entry): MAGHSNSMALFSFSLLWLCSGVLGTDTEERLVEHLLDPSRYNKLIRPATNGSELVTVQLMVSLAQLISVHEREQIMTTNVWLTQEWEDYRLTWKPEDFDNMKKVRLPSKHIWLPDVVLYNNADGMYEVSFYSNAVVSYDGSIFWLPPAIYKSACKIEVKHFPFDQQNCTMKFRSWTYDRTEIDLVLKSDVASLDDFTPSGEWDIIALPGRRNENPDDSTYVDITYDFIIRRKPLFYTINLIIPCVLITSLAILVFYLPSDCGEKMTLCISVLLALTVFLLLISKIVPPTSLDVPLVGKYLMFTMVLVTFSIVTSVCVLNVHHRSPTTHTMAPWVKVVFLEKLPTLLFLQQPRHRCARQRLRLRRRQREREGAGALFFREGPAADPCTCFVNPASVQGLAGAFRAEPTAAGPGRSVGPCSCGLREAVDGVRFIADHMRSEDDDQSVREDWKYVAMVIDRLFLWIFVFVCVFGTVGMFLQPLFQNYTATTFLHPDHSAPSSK
Sequence of Neuronal acetylcholine receptor subunit alpha-7 (Q05941 whole entry): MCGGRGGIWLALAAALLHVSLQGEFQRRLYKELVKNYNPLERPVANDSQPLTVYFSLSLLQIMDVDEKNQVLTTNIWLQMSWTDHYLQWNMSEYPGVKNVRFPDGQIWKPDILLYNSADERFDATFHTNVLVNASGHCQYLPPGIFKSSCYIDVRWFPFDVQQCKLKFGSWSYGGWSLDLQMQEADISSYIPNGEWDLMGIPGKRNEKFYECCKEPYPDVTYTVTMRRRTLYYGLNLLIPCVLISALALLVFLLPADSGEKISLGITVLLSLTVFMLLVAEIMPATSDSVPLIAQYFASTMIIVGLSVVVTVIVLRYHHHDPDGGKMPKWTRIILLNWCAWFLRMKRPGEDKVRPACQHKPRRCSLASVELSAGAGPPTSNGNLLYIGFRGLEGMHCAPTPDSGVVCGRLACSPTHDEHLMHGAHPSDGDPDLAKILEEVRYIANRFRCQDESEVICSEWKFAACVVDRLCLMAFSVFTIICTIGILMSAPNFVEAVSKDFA

On to `CCN1C[C@]2(COC(=O)c3ccccc3N3C(=O)CCC3=O)CC[C@H](OC)[C@]34C1[C@](O)([C@@H](OC)[C@H]23)[C@@]1(O)C[C@H](OC)[C@H]2C[C@@H]4[C@@H]1[C@H]2OC` [LYCACONITINE], for which, in data set [1], the LD50 came to 15 mg/kg. Besides, the Ki came out at 80 nM in data set [2] and 1000 nM in data set [3].

`CCN1C[C@]2(COC(=O)c3ccccc3N3C(=O)C[C@H](C)C3=O)CC[C@H](OC)[C@@]34[C@@H]5C[C@H]6[C@H](OC)[C@@H]5[C@](O)(C[C@@H]6OC)[C@](O)([C@@H](OC)[C@H]23)[C@@H]14` [METHYLLYCACONITINE] returned an LD50 in data set [1] of 3 mg/kg.

What is called LD50 is the dose at which mortality reaches 50%. In general, Ki refers to a measure of affinity in units of concentration, obtained from inhibition or displacement.

The record behind these values is ChEMBL document CHEMBL1158267, “Lycaconitine revisited: partial synthesis and neuronal nicotinic acetylcholine receptor affinities” (J Nat Prod, 1996).
